Tested on: patients after acute myocardial infarction
Test: TCM symptom score, total and single (chest pain, chest tightness, short breath, fatigue, palpitation, spontaneous perspiration, pale complexion), same clinical trial
Format: in vivo, human
Set-up: total score of TCM symptom, Mean / total score of TCM symptom, Min / total score of TCM symptom, Max / total score of TCM symptom, Md / change of total score of TCM symptom, Mean / change of total score of TCM symptom, Max / change of total score of TCM symptom, Md: scale not given here
Conditions: FAS
Description: 3508 patients who were in accordance with the diagnostic standards of AMI for 28 days to 2 years and differentiated as Qi deficiency and blood stagnation syndrome by TCM were studied. 0.5 g Chinese medicine composition prepared by the method of EXAMPLE 1 (Coded as QSYQ) was administrated half an hour after meal, 3 times per day.
They included the overall survival time, angina pectoris score, TCM symptom score and life quality score, where angina pectoris score, TCM symptom score and life quality score were evaluated at randomization, in 1st, 3rd, 6th, 9th, 12th month after treatment and 18th month after follow-up.
The analysis method referred to the angina pectoris score.

[1] = 3 months after treatment-baseline
[2] = 6 months after treatment-baseline

CC(=O)Oc1ccccc1C(=O)O [Control group, aspirine]
total score of TCM symptom, Md (3 months after treatment): 10.00
total score of TCM symptom, Mean (3 months after treatment): 10.90
total score of TCM symptom, Min (3 months after treatment): 0.00
change of fatigue 0, % of patients [1]: (64.74%)
change of fatigue 0, number of patients [1]: 1107
change of fatigue 2, % of patients [1]: (24.56%)
change of fatigue 2, number of patients [1]: 420
change of fatigue 4, % of patients [1]: (4.09%)
change of fatigue 4, number of patients [1]: 70
change of fatigue 6, % of patients [1]: (0.94%)
change of fatigue 6, number of patients [1]: 16
change of fatigue −2, % of patients [1]: (5.03%)
change of fatigue −2, number of patients [1]: 86
change of fatigue −4, % of patients [1]: (0.53%)
change of fatigue −4, number of patients [1]: 9
change of fatigue −6, % of patients [1]: (0.12%)
change of fatigue −6, number of patients [1]: 2
change of pale complexion 0, number of patients [1]: 1387
change of pale complexion 0, percent of patients [1]: (81.21%)
change of pale complexion 1, number of patients [1]: 259
change of pale complexion 1, percent of patients [1]: (15.16%)
change of pale complexion −1, number of patients [1]: 62
change of pale complexion −1, percent of patients [1]: (3.63%)
change of palpitation 0, number of patients [1]: 1125
change of palpitation 0, percent of patients [1]: (65.79%)
change of palpitation 1, number of patients [1]: 415
change of palpitation 1, percent of patients [1]: (24.27%)
change of palpitation 2, number of patients [1]: 43
change of palpitation 2, percent of patients [1]: (2.51%)
change of palpitation 3, number of patients [1]: 6
change of palpitation 3, percent of patients [1]: (0.35%)
change of palpitation −1, percent of patients [1]: (6.96%)
change of palpitation −2, number of patients [1]: 2
change of palpitation −2, percent of patients [1]: (0.12%)
change of palpitation −3, number of patients [1]: 0
change of palpitation −3, percent of patients [1]: (0.00%)
change of short breath 0, % of patients [1]: (71.29%)
change of short breath 0, number of patients [1]: 1219
change of short breath 2, % of patients [1]: (20.47%)
change of short breath 2, number of patients [1]: 350
change of short breath 4, % of patients [1]: (2.16%)
change of short breath 4, number of patients [1]: 37
change of short breath 6, % of patients [1]: (0.53%)
change of short breath 6, number of patients [1]: 9
change of short breath −2, % of patients [1]: (5.44%)
change of short breath −2, number of patients [1]: 93
change of short breath −4, % of patients [1]: (0.12%)
change of short breath −4, number of patients [1]: 2
change of short breath −6, % of patients [1]: (0.00%)
change of short breath −6, number of patients [1]: 0
change of spontaneous perspiration 0, number of patients [1]: 1083
change of spontaneous perspiration 0, percent of patients [1]: (63.37%)
change of spontaneous perspiration 1, number of patients [1]: 392
change of spontaneous perspiration 1, percent of patients [1]: (22.94%)
change of spontaneous perspiration 2, number of patients [1]: 76
change of spontaneous perspiration 2, percent of patients [1]: (4.45%)
change of spontaneous perspiration 3, number of patients [1]: 20
change of spontaneous perspiration 3, percent of patients [1]: (1.17%)
change of spontaneous perspiration −1, percent of patients [1]: (7.08%)
change of spontaneous perspiration −2, number of patients [1]: 15
change of spontaneous perspiration −2, percent of patients [1]: (0.88%)
change of spontaneous perspiration −3, number of patients [1]: 2
change of spontaneous perspiration −3, percent of patients [1]: (0.12%)
distribution of total score of TCM symptom: Medium, number of patients (6 months after treatment): 418
distribution of total score of TCM symptom: Medium, percentage of patients (6 months after treatment): (26.79%)
distribution of total score of TCM symptom: Mild, number of patients (6 months after treatment): 1133
distribution of total score of TCM symptom: Mild, percentage of patients (6 months after treatment): (72.63%)
distribution of total score of TCM symptom: Severe, number of patients (6 months after treatment): 9
distribution of total score of TCM symptom: Severe, percentage of patients (6 months after treatment): (0.58%)
fatigue score 0, % of patients (6 months after treatment): (30.27%)
fatigue score 0, number of patients (6 months after treatment): 520
fatigue score 2, % of patients (6 months after treatment): (61.00%)
fatigue score 2, number of patients (6 months after treatment): 1048
fatigue score 4, % of patients (6 months after treatment): (7.86%)
fatigue score 4, number of patients (6 months after treatment): 135
fatigue score 6, % of patients (6 months after treatment): (0.87%)
fatigue score 6, number of patients (6 months after treatment): 15
pale complexion score 0, number of patients (6 months after treatment): 871
pale complexion score 0, percent of patients (6 months after treatment): (50.70%)
pale complexion score 1, number of patients (6 months after treatment): 657
pale complexion score 1, percent of patients (6 months after treatment): (38.24%)
pale complexion score 2, number of patients (6 months after treatment): 179
pale complexion score 2, percent of patients (6 months after treatment): (10.42%)
pale complexion score 3, number of patients (6 months after treatment): 11
pale complexion score 3, percent of patients (6 months after treatment): (0.64%)
palpitation score 0, number of patients (6 months after treatment): 538
palpitation score 0, percent of patients (6 months after treatment): (31.32%)
palpitation score 2, number of patients (6 months after treatment): 906
palpitation score 2, percent of patients (6 months after treatment): (52.74%)
palpitation score 4, number of patients (6 months after treatment): 246
palpitation score 4, percent of patients (6 months after treatment): (14.32%)
palpitation score 6, number of patients (6 months after treatment): 28
palpitation score 6, percent of patients (6 months after treatment): (1.63%)
short breath score 0, % of patients (6 months after treatment): (25.03%)
short breath score 0, number of patients (6 months after treatment): 430
short breath score 2, % of patients (6 months after treatment): (0.06%)
short breath score 2, number of patients (6 months after treatment): 1
short breath score 3, % of patients (6 months after treatment): (58.09%)
short breath score 3, number of patients (6 months after treatment): 998
short breath score 6, % of patients (6 months after treatment): (16.30%)
short breath score 6, number of patients (6 months after treatment): 280
short breath score 9, % of patients (6 months after treatment): (0.52%)
short breath score 9, number of patients (6 months after treatment): 9
spontaneous perspiration score 0, number of patients (6 months after treatment): 728
spontaneous perspiration score 0, percent of patients (6 months after treatment): (42.37%)
spontaneous perspiration score 1, number of patients (6 months after treatment): 833
spontaneous perspiration score 1, percent of patients (6 months after treatment): (48.49%)
spontaneous perspiration score 2, number of patients (6 months after treatment): 144
spontaneous perspiration score 2, percent of patients (6 months after treatment): (8.38%)
spontaneous perspiration score 3, number of patients (6 months after treatment): 13
spontaneous perspiration score 3, percent of patients (6 months after treatment): (0.76%)
total score of TCM symptom, Max (6 months after treatment): 34.00
total score of TCM symptom, Md (6 months after treatment): 9.00
total score of TCM symptom, Mean (6 months after treatment): 10.04
total score of TCM symptom, Min (6 months after treatment): 0.00
change of fatigue 0, % of patients [2]: (56.96%)
change of fatigue 0, number of patients [2]: 974
change of fatigue 2, % of patients [2]: (28.54%)
change of fatigue 2, number of patients [2]: 488
change of fatigue 4, % of patients [2]: (6.43%)
change of fatigue 4, number of patients [2]: 110
change of fatigue 6, % of patients [2]: (1.05%)
change of fatigue 6, number of patients [2]: 18
change of fatigue −2, % of patients [2]: (6.32%)

From US9211310B2, “Use of a Chinese medicine composition in preparing medicaments for treating secondary prevention of myocardial infarction” (TASLY PHARMACEUTICAL GROUP CO., LTD, priority 2010, dated 2015)
